According to US20250230193A1, “CYCLIC COMPOUND HAVING SELECTIVE KRAS INHIBITORY EFFECT ON HRAS AND NRAS” (CHUGAI SEIYAKU KABUSHIKI KAISHA, priority 2022, published 2025):

Legend:
[1] = target: GDP-bound NRAS wild-type protein (Homo sapiens, UniProt P01111); experiment: Binding to NRAS by surface plasmon resonance (SPR), Single Cycle Kinetics; conditions: KD ratio, GDP-bound NRAS wild-type vs GDP-bound KRAS wild-type, SPR
[2] = target: GDP-bound HRAS wild-type protein (Homo sapiens, UniProt P01112); experiment: Binding to HRAS by surface plasmon resonance (SPR), Single Cycle Kinetics; conditions: KD ratio, GDP-bound HRAS wild-type vs GDP-bound KRAS wild-type, SPR
GDP-bound HRAS wild-type protein, sequence (P01112 whole entry): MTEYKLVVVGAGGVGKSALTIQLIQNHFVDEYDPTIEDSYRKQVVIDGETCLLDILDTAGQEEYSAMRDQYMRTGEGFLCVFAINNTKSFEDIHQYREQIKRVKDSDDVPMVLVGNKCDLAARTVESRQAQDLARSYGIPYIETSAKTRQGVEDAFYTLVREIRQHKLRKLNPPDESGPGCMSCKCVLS

GDP-bound NRAS wild-type protein, sequence (P01111 whole entry): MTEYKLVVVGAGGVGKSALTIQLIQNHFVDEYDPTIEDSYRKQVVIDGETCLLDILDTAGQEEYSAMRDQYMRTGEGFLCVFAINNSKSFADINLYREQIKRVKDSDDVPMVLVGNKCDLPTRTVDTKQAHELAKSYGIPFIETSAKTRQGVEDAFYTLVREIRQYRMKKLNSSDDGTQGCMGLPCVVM

Row | Structure (SMILES) | NRAS/KRAS (ratio of KD value for NRAS to KD value for KRAS) [1] | HRAS/KRAS (ratio of KD value for HRAS to KD value for KRAS) [2]
1 | CCC[C@H]1C(=O)N[C@@H]([C@@H](C)CC)C(=O)N(C)CC(=O)N(C)[C@H]2C/C=C\CCN(C2=O)[C@@H](Cc2ccc(C)cc2)C(=O)N(C)CC(=O)N[C@@H](CCc2ccc(C(F)(F)F)c(OC)c2)C(=O)N2C[C@H](C)C[C@H]2C(=O)NC2(CC(C)(C)C2)C(=O)N(C)[C@@H](C2CCCC2)C(=O)N(C)[C@H](C(=O)N(C)C)CC(=O)N1C [PP1890] | A (a compound having 10 or more and less than 20 is denoted as A) | B (a compound having 3 or more and less than 10 is denoted as B)
2 | CCC[C@H]1C(=O)N[C@@H]([C@@H](C)CC)C(=O)N(C)CC(=O)N(C)[C@H]2C/C=C\CCN(C2=O)[C@@H](Cc2ccc(C)cc2)C(=O)N(C)CC(=O)N[C@@H](CCc2ccc(C(F)(F)F)c(OC)c2)C(=O)N2C[C@H](C)C[C@H]2C(=O)NC2(CC(C)(C)C2)C(=O)N(C)[C@@H](C2CCCC2)C(=O)N(C)[C@H](C(=O)N(C)CC)CC(=O)N1C [PP1891] | A (a compound having 10 or more and less than 20 is denoted as A) | A (a compound having 10 or more and less than 20 is denoted as A)
3 | CCC[C@H]1C(=O)N[C@@H]([C@@H](C)CC)C(=O)N(C)CC(=O)N(C)[C@H]2C/C=C\CCN(C2=O)[C@@H](Cc2ccc(C)cc2)C(=O)N(C)CC(=O)N[C@@H](CCc2ccc(C(F)(F)F)c(OC)c2)C(=O)N2C[C@H](OCC)C[C@H]2C(=O)NC2(CC(C)(C)C2)C(=O)N(C)[C@@H](C2CCCC2)C(=O)N(C)[C@H](C(=O)N(C)C)CC(=O)N1C [PP1892] | A (a compound having 10 or more and less than 20 is denoted as A) | B (a compound having 3 or more and less than 10 is denoted as B)
4 | CCC[C@H]1C(=O)N[C@@H]([C@@H](C)CC)C(=O)N(C)CC(=O)N(C)[C@H]2C/C=C\CCN(C2=O)[C@@H](Cc2ccc(C)cc2)C(=O)N(C)CC(=O)N[C@@H](CCc2ccc(C(F)(F)F)c(Cl)c2)C(=O)N2C[C@@H](C)C[C@H]2C(=O)NC2(CC(C)(C)C2)C(=O)N(C)[C@@H](C2CCCC2)C(=O)N(C)[C@H](C(=O)N(C)CC)CC(=O)N1C [PP1893] | A (a compound having 10 or more and less than 20 is denoted as A) | B (a compound having 3 or more and less than 10 is denoted as B)
5 | CCC[C@H]1C(=O)N[C@@H]([C@@H](C)CC)C(=O)N(C)CC(=O)N(C)[C@H]2C/C=C\CCN(C2=O)[C@@H](Cc2ccc(C)cc2)C(=O)N(C)CC(=O)N[C@@H](CCc2ccc(C(F)(F)F)c(Cl)c2)C(=O)N2C[C@H](C)C[C@H]2C(=O)NC2(CC(C)(C)C2)C(=O)N(C)[C@@H](C2CCCC2)C(=O)N(C)[C@H](C(=O)N(C)CC)CC(=O)N1C [PP1894] | A (a compound having 10 or more and less than 20 is denoted as A) | A (a compound having 10 or more and less than 20 is denoted as A)
6 | CCC[C@H]1C(=O)N[C@@H]([C@@H](C)CC)C(=O)N(C)CC(=O)N(C)[C@H]2C/C=C\CCN(C2=O)[C@@H](Cc2ccc(C)cc2)C(=O)N(C)CC(=O)N[C@@H](CCc2ccc(C(F)(F)F)c(Cl)c2)C(=O)N2C[C@H](OCC)C[C@H]2C(=O)NC2(CCC2)C(=O)N(C)[C@@H](C2CCCC2)C(=O)N(C)[C@H](C(=O)N(C)CC)CC(=O)N1C [PP1895] | A (a compound having 10 or more and less than 20 is denoted as A) | B (a compound having 3 or more and less than 10 is denoted as B)
7 | CCC[C@H]1C(=O)N[C@@H]([C@@H](C)CC)C(=O)N(C)CC(=O)N(C)[C@H]2C/C=C\CCN(C2=O)[C@@H](Cc2ccc(C)cc2)C(=O)N(C)CC(=O)N[C@@H](CCc2ccc(C(F)(F)F)c(Cl)c2)C(=O)N2C[C@H](OCC)C[C@H]2C(=O)NC2(CC(C)(C)C2)C(=O)N(C)[C@@H](C2CCCC2)C(=O)N(C)[C@H](C(=O)N(C)C)CC(=O)N1C [PP1896] | A (a compound having 10 or more and less than 20 is denoted as A) | B (a compound having 3 or more and less than 10 is denoted as B)
8 | CC[C@H](C)[C@@H]1NC(=O)[C@H](CC2CC2)N(C)C(=O)C[C@@H](C(=O)N(C)C)N(C)C(=O)[C@H](C2CCCC2)N(C)C(=O)C2(CC(C)(C)C2)NC(=O)[C@@H]2C[C@H](C)CN2C(=O)[C@H](CCc2ccc(C(F)(F)F)c(OC)c2)NC(=O)CN(C)C(=O)[C@H](Cc2ccc(C)cc2)N2CC/C=C\C[C@@H](C2=O)N(C)C(=O)CN(C)C1=O [PP1898] | B (a compound having 3 or more and less than 10 is denoted as B) | B (a compound having 3 or more and less than 10 is denoted as B)
9 | CC[C@H](C)[C@@H]1NC(=O)[C@H](CC2CC2)N(C)C(=O)C[C@@H](C(=O)N(C)CC)N(C)C(=O)[C@H](C2CCCC2)N(C)C(=O)C2(CC(C)(C)C2)NC(=O)[C@@H]2C[C@H](C)CN2C(=O)[C@H](CCc2ccc(C(F)(F)F)c(OC)c2)NC(=O)CN(C)C(=O)[C@H](Cc2ccc(C)cc2)N2CC/C=C\C[C@@H](C2=O)N(C)C(=O)CN(C)C1=O [PP1899] | A (a compound having 10 or more and less than 20 is denoted as A) | B (a compound having 3 or more and less than 10 is denoted as B)
10 | CC[C@H](C)[C@@H]1NC(=O)[C@H](CC2CC2)N(C)C(=O)C[C@@H](C(=O)N(C)C)N(C)C(=O)[C@H](C2CCCC2)N(C)C(=O)C2(CC(C)(C)C2)NC(=O)[C@@H]2C[C@@H](C)CN2C(=O)[C@H](CCc2ccc(C(F)(F)F)c(OC)c2)NC(=O)CN(C)C(=O)[C@H](Cc2ccc(C)cc2)N2CC/C=C\C[C@@H](C2=O)N(C)C(=O)CN(C)C1=O [PP1901] | A (a compound having 10 or more and less than 20 is denoted as A) | B (a compound having 3 or more and less than 10 is denoted as B)
11 | CC[C@H](C)[C@@H]1NC(=O)[C@H](CC2CC2)N(C)C(=O)C[C@@H](C(=O)N(C)CC)N(C)C(=O)[C@H](C2CCCC2)N(C)C(=O)C2(CC(C)(C)C2)NC(=O)[C@@H]2C[C@@H](C)CN2C(=O)[C@H](CCc2ccc(C(F)(F)F)c(OC)c2)NC(=O)CN(C)C(=O)[C@H](Cc2ccc(C)cc2)N2CC/C=C\C[C@@H](C2=O)N(C)C(=O)CN(C)C1=O [PP1902] | A (a compound having 10 or more and less than 20 is denoted as A) | A (a compound having 10 or more and less than 20 is denoted as A)
12 | CCO[C@@H]1C[C@H]2C(=O)NC3(CC(C)(C)C3)C(=O)N(C)[C@@H](C3CCCC3)C(=O)N(C)[C@H](C(=O)N(C)C)CC(=O)N(C)[C@@H](CC3CC3)C(=O)N[C@@H]([C@@H](C)CC)C(=O)N(C)CC(=O)N(C)[C@H]3C/C=C\CCN(C3=O)[C@@H](Cc3ccc(C)cc3)C(=O)N(C)CC(=O)N[C@@H](CCc3ccc(C(F)(F)F)c(OC)c3)C(=O)N2C1 [PP1903] | A (a compound having 10 or more and less than 20 is denoted as A) | B (a compound having 3 or more and less than 10 is denoted as B)
13 | CC[C@H](C)[C@@H]1NC(=O)[C@H](CC(C)C)N(C)C(=O)C[C@@H](C(=O)N(C)CC)N(C)C(=O)[C@H](C2CCCC2)N(C)C(=O)C2(CCC2)NC(=O)[C@@H]2C[C@H](C)CN2C(=O)[C@H](CCc2ccc(C(F)(F)F)c(OC)c2)NC(=O)CN(C)C(=O)[C@H](Cc2ccc(C)cc2)N2CC/C=C\C[C@@H](C2=O)N(C)C(=O)CN(C)C1=O [PP1904] | A (a compound having 10 or more and less than 20 is denoted as A) | B (a compound having 3 or more and less than 10 is denoted as B)
14 | CC[C@H](C)[C@@H]1NC(=O)[C@H](CC(C)C)N(C)C(=O)C[C@@H](C(=O)N(C)CC)N(C)C(=O)[C@H](C2CCCC2)N(C)C(=O)C2(CC(C)(C)C2)NC(=O)[C@@H]2C[C@H](C)CN2C(=O)[C@H](CCc2ccc(C(F)(F)F)c(OC)c2)NC(=O)CN(C)C(=O)[C@H](Cc2ccc(C)cc2)N2CC/C=C\C[C@@H](C2=O)N(C)C(=O)CN(C)C1=O [PP1906] | A (a compound having 10 or more and less than 20 is denoted as A) | A (a compound having 10 or more and less than 20 is denoted as A)
15 | CC[C@H](C)[C@@H]1NC(=O)[C@H](CC(C)C)N(C)C(=O)C[C@@H](C(=O)N(C)CC)N(C)C(=O)[C@H](C2CCCC2)N(C)C(=O)C2(CCC2)NC(=O)[C@@H]2C[C@@H](C)CN2C(=O)[C@H](CCc2ccc(C(F)(F)F)c(OC)c2)NC(=O)CN(C)C(=O)[C@H](Cc2ccc(C)cc2)N2CC/C=C\C[C@@H](C2=O)N(C)C(=O)CN(C)C1=O [PP1907] | AA (a compound having 20 or more is denoted as AA) | A (a compound having 10 or more and less than 20 is denoted as A)
16 | CCO[C@@H]1C[C@H]2C(=O)NC3(CCC3)C(=O)N(C)[C@@H](C3CCCC3)C(=O)N(C)[C@H](C(=O)N(C)CC)CC(=O)N(C)[C@@H](CC(C)C)C(=O)N[C@@H]([C@@H](C)CC)C(=O)N(C)CC(=O)N(C)[C@H]3C/C=C\CCN(C3=O)[C@@H](Cc3ccc(C)cc3)C(=O)N(C)CC(=O)N[C@@H](CCc3ccc(C(F)(F)F)c(OC)c3)C(=O)N2C1 [PP1910] | A (a compound having 10 or more and less than 20 is denoted as A) | B (a compound having 3 or more and less than 10 is denoted as B)
